Experimental data reported in patent publication US20070212360A1, “Modulation of mitochondrial oxygen consumption for therapeutic purposes” (priority 2006, published 2007).

Tested on: RKO and RKOShHIF1α cells
Assay: In vitro oxygen consumption of RKO and RKOShHIF1α cells
Type: cell-based, human
Details: 0.5% O2 24 h
Description: FIG. 7. Inhibition of HIF1 and PDK1 increases oxygen consumption in vitro and in vivo. (a) Western blots of extracts from RKO and Su.86 cells exposed to normoxia (N) or hypoxia (H) (0.5% O2) for 24 h in the presence or absence of 2 ng/ml echinomycin probed for the indicated proteins. (b) Oxygen consumption rates of RKO and RKOShHIF1α cells (left) and Su.86 cells (right) after 24 h treatment with normoxia or hypoxia (0.5% O2) with or without 2 ng/ml echinomycin. Data are normalized to normoxic samples. (c) Relative oxygen consumption of RKO cells treated with hypoxia (0.5% O2) for 24 h in the presence of increasing concentrations of echinomycin. (d) Oxygen consumption rates of freshly explanted tumor tissue from RKO (n=16) and RKOShHIF1α (n=8) xenografts. (e) Oxygen consumption rates of RKO and RKOShHIF1 tumors from mice treated with 0.12 mg/kg echinomycin ip 24 h prior (n=8), or 50 mg/kg DCA ip 4 h prior (n=8). Data is normalized to PBS treated controls (n=8-16). (*) indicate a significant difference relative to control (p<0.05).
Oxygen consumption measurements. Cells were trypsinized and suspended at 3×10^6 to 6×10^6 cells per ml in normoxic DMEM+10% FBS. Oxygen consumption was measured in a 0.5 ml volume using an Oxytherm electrode unit (Hansatech, Norfolk, UK). […] Oxygen consumption was measured as above in a 1 ml volume and normalized to tissue weight.

Compound: CS[C@H]1SC[C@H]2C(=O)N(C)[C@@H](C(C)C)C(=O)OC[C@@H](NC(=O)c3cnc4ccccc4n3)C(=O)N[C@@H](C)C(=O)N(C)[C@@H]1C(=O)N(C)[C@@H](C(C)C)C(=O)OC[C@@H](NC(=O)c1cnc3ccccc3n1)C(=O)N[C@@H](C)C(=O)N2C [echinomycin]
- effect on HIF1-dependent reduction in oxygen consumption in parental cells (RKO parental cells, increasing concentrations): dose-dependent block
- effect on oxygen consumption in RKOShHIF1α cells (RKOShHIF1α cells, 2 ng/ml): no effect
